Experiments:
HCV NS5B = molecular target: T1, HCV NS5B (Hepatitis C virus genotype 1b, UniProt Q9WMX2); experiment: HCV NS5B RdRp enzyme assay (standard / modified); assay type: biochemical; conditions: HCV RdRp genotype 1b; standard or modified assay not specified; read-out: IC50
T1 construct: The protein was expressed with an 18 amino acid C-terminal truncation to enhance the solubility; made in house; host or cells: E. coli BL21(DE3)
Method in brief: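 Genotype 1b NS5B, 18-aa C-terminal truncation, E. coli-expressed; polyA template with biotin-oligo-dT12 primer, 3H-UTP (0.29 μM UTP), pH 7.5 Hepes, 2% DMSO, 30 °C, SPA read. Standard: 28 nM enzyme, 6 nM template, 180 nM primer, 60 min. Modified: 1.75 nM enzyme, 0.36 nM template, 20 nM bead-precaptured primer, 4 h; IC50 from seven concentrations, four-parameter fit.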

HCV replicon cells = experiment: HCV replicon FRET / luciferase assay; assay type: cell-based; conditions: Hepatitis C virus, 50% reduction in FRET or luciferase activity in HCV replicon cells; read-out: EC50
Method in brief: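 HCV replicon cells (with or without Renilla luciferase reporter) incubated with titrated compounds at 37° C; cytotoxicity read by Alamar blue. Replicon activity then read by NS3 cleavage of EDANS/DABCYL FRET peptide (20 μM final, 340/490 nm kinetic) or by luciferase; background from highest control-inhibitor wells subtracted; EC50 = concentration giving 50% signal reduction.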

T1 sequence (Q9WMX2 2420-2992): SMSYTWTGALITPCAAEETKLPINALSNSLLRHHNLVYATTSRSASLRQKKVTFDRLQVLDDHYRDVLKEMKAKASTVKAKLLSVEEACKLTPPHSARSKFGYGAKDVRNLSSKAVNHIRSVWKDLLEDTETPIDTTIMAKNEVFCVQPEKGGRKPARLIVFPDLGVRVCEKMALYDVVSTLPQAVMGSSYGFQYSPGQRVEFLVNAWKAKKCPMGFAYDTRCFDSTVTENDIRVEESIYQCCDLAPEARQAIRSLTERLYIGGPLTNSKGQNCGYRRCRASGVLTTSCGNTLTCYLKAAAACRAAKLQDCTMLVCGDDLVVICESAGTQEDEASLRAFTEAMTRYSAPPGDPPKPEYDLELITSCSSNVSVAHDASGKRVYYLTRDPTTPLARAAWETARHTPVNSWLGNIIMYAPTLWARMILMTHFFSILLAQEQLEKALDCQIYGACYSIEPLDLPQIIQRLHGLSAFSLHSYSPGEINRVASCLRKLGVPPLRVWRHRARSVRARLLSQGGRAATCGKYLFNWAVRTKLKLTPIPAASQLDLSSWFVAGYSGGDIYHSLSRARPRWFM

Row | Compound | IC50 (HCV NS5B) | EC50 (HCV replicon cells)
1 | COc1ccc2c(c1)[C@@H]1C[C@]1(C(=O)N1CC3CC1CN3C)Cn1c-2c(C2CCCCC2)c2ccc(C(=O)NS(=O)(=O)N(C)C)cc21 (some centres unmarked) | < 20 nM | 2.4 to 500 nM
2 | COc1ccc2c(c1)[C@H]1C[C@@]1(C(=O)N1CC3CC1CN3C)Cn1c-2c(C2CCCCC2)c2ccc(C(=O)NS(=O)(=O)N(C)C)cc21 (some centres unmarked) | 2.4 to 500 nM | 2.4 to 500 nM
3 | COc1ccc2c(c1)C1CC1(C(=O)N1C[C@H]3C[C@@H](C1)c1cccc(=O)n1C3)Cn1c-2c(C2CCCCC2)c2ccc(C(=O)NS(=O)(=O)N(C)C)cc21 (some centres unmarked) | < 70 nM | 2.4 to 500 nM
4 | COc1ccc2c(c1)C1CC1(C(=O)N1[C@@H]3C[C@H]1CN(C(=O)N(C)C)C3)Cn1c-2c(C2CCCCC2)c2ccc(C(=O)NS(=O)(=O)N(C)C)cc21 (some centres unmarked) | 2.4 to 500 nM | 2.4 to 500 nM
5 | COc1ccc2c(c1)C1CC1(C(=O)N1[C@@H]3C[C@H]1CN(C(C)=O)C3)Cn1c-2c(C2CCCCC2)c2ccc(C(=O)NS(=O)(=O)N(C)C)cc21 (some centres unmarked) | 2.4 to 500 nM | 2.4 to 500 nM
6 | COc1ccc2c(c1)[C@@H]1C[C@]1(C(=O)N1C[C@@H]3C[C@H]1CN3C(=O)OC(C)(C)C)Cn1c-2c(C2CCCCC2)c2ccc(C(=O)NS(=O)(=O)N(C)C)cc21 | 2.4 to 500 nM | 2.4 to 500 nM
7 | COc1ccc2c(c1)[C@@H]1C[C@]1(C(=O)N1[C@@H]3C[C@H]1CN(Cc1ccccc1)C3)Cn1c-2c(C2CCCCC2)c2ccc(C(=O)NS(=O)(=O)N(C)C)cc21 | 2.4 to 500 nM | 2.4 to 500 nM
8 | COc1ccc2c(c1)[C@@H]1C[C@]1(C(=O)N1[C@@H]3C[C@H]1CN(C)C3)Cn1c-2c(C2CCCCC2)c2ccc(C(=O)NS(=O)(=O)N(C)C)cc21 | 2.4 to 500 nM | 2.4 to 500 nM
9 | COc1ccc2c(c1)C1CC1(C(=O)N1C[C@@H]3C[C@H]1CN3C(=O)OC(C)(C)C)Cn1c-2c(C2CCCCC2)c2ccc(C(=O)NS(=O)(=O)C3CC3)cc21 (some centres unmarked) | 2.4 to 500 nM | 2.4 to 500 nM
10 | COc1ccc2c(c1)C1CC1(C(=O)N1C3CC1CN(Cc1ccccc1)C3)Cn1c-2c(C2CCCCC2)c2ccc(C(=O)NS(=O)(=O)C3CC3)cc21 (centres unmarked) | 2.4 to 500 nM | 2.4 to 500 nM
11 | COc1ccc2c(c1)C1CC1(C(=O)N1CCN3CCC1CC3)Cn1c-2c(C2CCCCC2)c2ccc(C(=O)NS(=O)(=O)N3CCN(C)CC3)cc21 (centres unmarked) | 2.4 to 500 nM | 2.4 to 500 nM
12 | COc1ccc2c(c1)C1CC1(C(=O)N1C3CNCC1C3)Cn1c-2c(C2CCCCC2)c2ccc(C(=O)NS(=O)(=O)C3CC3)cc21 (centres unmarked) | 2.4 to 500 nM | 2.4 to 500 nM
13 | CCN1C[C@H]2C[C@@H]1CN2C(=O)C12CC1c1cc(OC)ccc1-c1c(C3CCCCC3)c3ccc(C(=O)NS(N)(=O)=O)cc3n1C2 (some centres unmarked) | 2.4 to 500 nM | 2.4 to 500 nM
14 | COc1ccc2c(c1)C1CC1(C(=O)N1C[C@H]3C[C@@H]1CN3CC(C)C)Cn1c-2c(C2CCCCC2)c2ccc(C(=O)NS(N)(=O)=O)cc21 (some centres unmarked) | 2.4 to 500 nM | 2.4 to 500 nM
15 | COc1ccc2c(c1)C1CC1(C(=O)N1C[C@H]3C[C@@H]1CN3C)Cn1c-2c(C2CCCCC2)c2ccc(C(=O)NS(N)(=O)=O)cc21 (some centres unmarked) | 2.4 to 500 nM | 2.4 to 500 nM
16 | COc1ccc2c(c1)C1CC1(C(=O)N1C[C@H]3C[C@@H]1CN3C(=O)OC(C)(C)C)Cn1c-2c(C2CCCCC2)c2ccc(C(=O)NS(=O)(=O)C(C)C)cc21 (some centres unmarked) | 2.4 to 500 nM | 2.4 to 500 nM
17 | COc1ccc2c(c1)C1CC1(C(=O)N1CCN3CCC1CC3)Cn1c-2c(C2CCCCC2)c2ccc(C(=O)NS(C)(=O)=O)cc21 (centres unmarked) | 2.4 to 500 nM | 2.4 to 500 nM
18 | COc1ccc2c(c1)C1CC1(C(=O)N1C[C@H]3C[C@@H]1CN3C(=O)OC(C)(C)C)Cn1c-2c(C2CCCCC2)c2ccc(C(=O)NS(C)(=O)=O)cc21 (some centres unmarked) | 2.4 to 500 nM | 2.4 to 500 nM
19 | CCN1C[C@H]2C[C@@H]1CN2C(=O)C12CC1c1cc(OC)ccc1-c1c(C3CCCCC3)c3ccc(C(=O)NS(C)(=O)=O)cc3n1C2 (some centres unmarked) | 2.4 to 500 nM | 2.4 to 500 nM

Row | Compound | IC50 (HCV NS5B) | EC50 (HCV replicon cells)
20 | COc1ccc2c(c1)C1CC1(C(=O)N1C[C@@H]3C[C@H]1CN3C)Cn1c-2c(C2CCCCC2)c2ccc(C(=O)NS(C)(=O)=O)cc21 (some centres unmarked) | 2.4 to 500 nM | 2.4 to 500 nM
21 | COc1ccc2c(c1)C1CC1(C(=O)N1[C@@H]3C[C@H]1CN(C)C3)Cn1c-2c(C2CCCCC2)c2ccc(C(=O)NS(N)(=O)=O)cc21 (some centres unmarked) | 2.4 to 500 nM | 2.4 to 500 nM
22 | COc1ccc2c(c1)C1CC1(C(=O)N1[C@@H]3C[C@H]1CN(C)C3)Cn1c-2c(C2CCCCC2)c2ccc(C(=O)NS(C)(=O)=O)cc21 (some centres unmarked) | 2.4 to 500 nM | 2.4 to 500 nM
23 | COc1ccc2c(c1)C1CC1(C(=O)N1[C@@H]3C[C@H]1CN(C)C3)Cn1c-2c(C2CCCCC2)c2ccc(C(=O)NS(=O)(=O)N3CCC3)cc21 (some centres unmarked) | 2.4 to 500 nM | 2.4 to 500 nM
24 | COc1ccc2c(c1)C1CC1(C(=O)N1[C@@H]3C[C@H]1CN(C)C3)Cn1c-2c(C2CCCCC2)c2ccc(C(=O)NS(=O)(=O)C3CC3)cc21 (some centres unmarked) | 2.4 to 500 nM | 2.4 to 500 nM
25 | COc1ccc2c(c1)C1CC1(C(=O)N1CCN3CCC1CC3)Cn1c-2c(C2CCCCC2)c2ccc(C(=O)NS(=O)(=O)C(C)C)cc21 (centres unmarked) | 2.4 to 500 nM | 2.4 to 500 nM
26 | COc1ccc2c(c1)C1CC1(C(=O)N1C[C@@H]3C[C@H]1CN3C)Cn1c-2c(C2CCCCC2)c2ccc(C(=O)NS(=O)(=O)N3CCC3)cc21 (some centres unmarked) | 2.4 to 500 nM | 2.4 to 500 nM
27 | COc1ccc2c(c1)C1CC1(C(=O)N1C3CC1CN(C)C3)Cn1c-2c(C2CCCCC2)c2ccc(C(=O)NS(=O)(=O)C3CCOCC3)cc21 (centres unmarked) | 2.4 to 500 nM | 2.4 to 500 nM
28 | COc1ccc2c(c1)C1CC1(C(=O)N1C3CC1CN(C)C3)Cn1c-2c(C2CCCCC2)c2ccc(C(=O)NS(=O)(=O)CC3CCCO3)cc21 (centres unmarked) | 2.4 to 500 nM | 2.4 to 500 nM
29 | COc1ccc2c(c1)C1CC1(C(=O)N1C3COC[C@@H]1CN(C)C3)Cn1c-2c(C2CCCCC2)c2ccc(C(=O)NS(=O)(=O)CC(C)C)cc21 (some centres unmarked) | 2.4 to 500 nM | 2.4 to 500 nM
30 | COc1ccc2c(c1)C1CC1(C(=O)N1C3COC[C@@H]1CN(C)C3)Cn1c-2c(C2CCCCC2)c2ccc(C(=O)NS(=O)(=O)C(C)C)cc21 (some centres unmarked) | 2.4 to 500 nM | 2.4 to 500 nM
31 | COc1ccc2c(c1)C1CC1(C(=O)N1C3COC[C@@H]1CN(C)C3)Cn1c-2c(C2CCCCC2)c2ccc(C(=O)NS(=O)(=O)C3CCCC3)cc21 (some centres unmarked) | 2.4 to 500 nM | 2.4 to 500 nM
32 | COc1ccc2c(c1)C1CC1(C(=O)N1C3COC[C@@H]1CN(C)C3)Cn1c-2c(C2CCCCC2)c2ccc(C(=O)NS(=O)(=O)C3CCCCC3)cc21 (some centres unmarked) | 2.4 to 500 nM | 2.4 to 500 nM
33 | COc1ccc2c(c1)C1CC1(C(=O)N1C3COC[C@@H]1CN(C)C3)Cn1c-2c(C2CCCCC2)c2ccc(C(=O)NS(=O)(=O)CC(F)(F)F)cc21 (some centres unmarked) | 2.4 to 500 nM | 2.4 to 500 nM
34 | COc1ccc2c(c1)C1CC1(C(=O)N1C3COC[C@@H]1CN(C)C3)Cn1c-2c(C2CCCCC2)c2ccc(C(=O)NS(=O)(=O)CCC(F)(F)F)cc21 (some centres unmarked) | 2.4 to 500 nM | 2.4 to 500 nM
35 | COc1ccc2c(c1)[C@@H]1C[C@]1(C(=O)N1C3CCC1CN(C)CC3)Cn1c-2c(C2CCCCC2)c2ccc(C(=O)NS(=O)(=O)C(C)C)cc21 (some centres unmarked) | 2.4 to 500 nM | 2.4 to 500 nM
36 | COc1ccc2c(c1)[C@@H]1C[C@]1(C(=O)N1C3CN(C)CC1CN(C(C)=O)C3)Cn1c-2c(C2CCCCC2)c2ccc(C(=O)NS(=O)(=O)N(C)C)cc21 | 2.4 to 500 nM | 2.4 to 500 nM
37 | COCCN1CC2CCC1CN2C(=O)[C@]12C[C@H]1c1cc(OC)ccc1-c1c(C3CCCCC3)c3ccc(C(=O)NS(=O)(=O)C(C)C)cc3n1C2 (some centres unmarked) | 2.4 to 500 nM | 2.4 to 500 nM
